Experimental data published in ChEMBL document CHEMBL1150177, “Antineoplastic agents, 178. Isolation and structure of lychnostatins 1 and 2 from the South American Lychnophora antillana” (1990).
Values after ≈ are worked out from the molar mass of the structure shown.

Test system: P388
Experiment: Cytotoxicity against mouse P388 cells
Assay type: functional
Conditions: read-out: ED50 (the source's name)

SMILES | EC50
C=C(C)C(=O)O[C@H]1C[C@@](C)(OC(C)=O)C(=O)CC[C@H](C)[C@H](O)[C@H]2OC(=O)C(=C)[C@@H]21 [LYCHNOSTATIN 1] | 2 µg/mL (≈ 4.9 µM)
C=C(C)C(=O)O[C@H]1C[C@@](C)(OC(C)=O)C(=O)CC[C@H](C)C[C@H]2OC(=O)C(=C)[C@H]12 [LYCHNOSTATIN 2] | 0.19 µg/mL (≈ 0.484 µM)
